Data published in patent US7939091B2, “Biorational repellents obtained from terpenoids for use against arthropods” (Iowa State University Research Foundation, Inc., priority 1999, dated 2011).

Tests used:
Type in all cases: in vivo
[1] = test system: northern house mosquito, Culex pipiens; assay: Mosquito residual repellency bioassay (aged treated filter papers), static-air chamber
Source text: Aged applications of catnip essential oil, elemol, DEET, and hexane (control) were compared in the static-air choice-test apparatus under the same conditions as described above. The 0.5% and 0.1% (wt/vol) solutions of each test solution were made to yield the same rate of active ingredient used in the above mosquito repellency bioassay. Individually treated filter papers were then placed in a fume hood and aged for 0, 30, 60, 120, or 180-minutes, allowing volatization to occur over a set period of time. After the specified ageing period, filter papers were placed on the inside of the 9-cm glass petri dish lids, and then placed over the ends of the glass tube. The position of the treated side was randomized. Approximately […] unmated adult female mosquitoes were anaesthetized with CO2 and then introduced to the 9×60-cm glass cylinder through the centered 2-cm hole. Timing began 2 minutes after mosquito introduction, and mosquito distribution (number of individuals on treated and untreated sides) inside the static-air choice-test apparatus was recorded after 15 minutes for determination of Percentage Repellency (calculations shown under Percentage and Contact Repellency Bioassay). Experimental design was completely randomized with three replications of each aged test solution. Analysis of variance was used to identify significant differences related to active ingredient, concentration, and ageing period. Regression analysis was used to examine percentage repellency relationship to filter paper ageing.

[2] = test system: northern house mosquito, Culex pipiens; assay: Static-air choice-test apparatus, percentage and contact repellency bioassay; settings: 15 minutes
Description: A static-air choice-test apparatus as described above was used to determine the behavioral effects on the insects in this study. The apparatus consisted of a 9×60-cm section of glass tubing with a 2-cm hole drilled at the midpoint along the length for central introduction of the insects. All of the testing was conducted in an environmental chamber at 26° C.
Treatments included catnip essential oil, obtained by steam distillation as described herein and in Peterson, et al., J. Econ. Entomol., 2002, 95, 377-380. Osage orange essential oil, obtained by steam distillation of whole fruits previously described in Peterson, et al., J. Essential Oil Res., 2002, 14, 233-236, elemol (Augustus Oils, New Hampshire, England), and DEET (Aldrich, St. Louis, Mo.) test solutions at 1%, 0.5% and 0.1% concentrations (wt/vol). The test solutions' solvent, hexane, served as a control treatment in this assay.
One milliliter of the solution was applied to one half of a 9-cm diameter round filter paper with an area of 63.6 cm^2 and then allowed to dry before testing. […] Treated filter papers were placed inside the lids of 9-cm glass petri dishes, and placed over the ends of the glass tube. The position of the treated side, to the right or to the left, was selected by using a random-number table. Approximately fifteen unmated adult female mosquitoes were anaesthetized with CO2 and then introduced to the 9×60-cm glass cylinder through the centered 2-cm hole. Timing began two minutes after mosquito introduction, and mosquito distribution inside the static-air choice-test apparatus was observed over a 180-minute period for each treatment. Mosquito distribution (number of individuals on treated and untreated side) was recorded at 15, 30, 60, 90, 120, and 180-minute timepoints.
The data generated by this study was used to examine two measures of mosquito repellency, percentage repellency and contact repellency. Percentage repellency was calculated for with the following formula: Percentage Repellency=((Number of Individuals on Untreated Half-Number of Individuals on Treated Half)/15)×100.
Contact repellency was defined in this assay as 100% avoidance of the treated filter paper (no contact). 15, 30, 60, 90, 120, and 180-minute time-points were used to assess contact repellency for individual observations.
The experimental design was a completely randomized design using three replications of each treatment. Analysis of variance was performed on SAS (PROC GLM; SAS Version 8) to identify significant differences of percentage repellency due to treatment, and concentration. Multiple comparisions were completed using Tukey's procedure. Treatment pair-wise comparisons of contact repellency, which included data from the six time-points observed for each treatment, were completed using Fishers Exact (PROC FREQ; SAS Version 8).

[3] = test system: yellow fever mosquitoes, Aedes aegypti; assay: Static-air repellency chamber, spatial and contact repellency, adult female yellow fever mosquitoes; settings: for long term repellency (in excess of two hours): Table 20, up to 360 min; for Average Percentage Repellency Over Time: application rate 78.6 μg/cm^2
Description: Test Equipment. In this testing, a static air repellency chamber was used. The apparatus consisted of a 9×60-cm section of glass tubing with a 2-cm hole drilled at the midpoint along the length for central introduction of the insects. All of the testing was conducted in an environmental chamber at ambient temperatures.
Test Methods. The data for spatial repellency was collected at 15 minutes after the introduction of female yellow fever mosquitoes into a static air repellency chamber. Data for the contact repellency was collected after three hours. The concentrations used in the tests are 1% solution (1 ml of it on a 9-cm diameter filter paper). One (1) ml of a 1% (wt/vol) solution of repellent substance containing hexane as a carrier was pipetted onto a 9-cm diameter filter paper results in a concentration of 157 μg/cm^2. The solution contained the desired mass of compound to be tested added to the desired volume of hexane, e.g., for a 1% solution of catnip essential oil, […] was added to 100 ml of hexane.
One milliliter of the solution was applied to one half of a 9-cm diameter round filter paper with an area of 63.6 cm^2 and then allowed to dry before testing. […] Treated filter papers were placed inside the lids of 9-cm glass petri dishes, and placed over the ends of the glass tube. The position of the treated side, to the right or to the left, was selected by using a random-number table. Approximately fifteen unmated adult female mosquitoes were anaesthetized with CO2 and then introduced to the 9×60-cm glass cylinder through the centered 2-cm hole. Timing began 2 minutes after mosquito introduction, and mosquito distribution inside the static-air choice-test apparatus was observed over a 15-minute period for each treatment to determine spatial repellency. Basically the number of mosquitoes in the non-treated half were considered to be repelled and were counted. Percent repellency was considered to be: (Number of Individuals on Untreated Half−Number of Individuals on Treated Half)/15)×100. Contact repellency was defined in this assay as 100% avoidance of the treated filter paper-after three hours. The experimental design was a completely randomized design using six replications of each treatment.
All test methods were the same as described in Example 7, except spatial repellency over a longer period.
Test Methods. […] Also only three replications were used instead of six.

[4] = 15.7 μg/cm^2 (0.1%), treatment aged 0 min
[5] = 15.7 μg/cm^2 (0.1%), treatment aged 30 min
[6] = 15.7 μg/cm^2 (0.1%), treatment aged 60 min
[7] = 15.7 μg/cm^2 (0.1%), treatment aged 120 min
[8] = 15.7 μg/cm^2 (0.1%), treatment aged 180 min
[9] = 78.6 μg/cm^2 (0.5%), treatment aged 0 min
[10] = 78.6 μg/cm^2 (0.5%), treatment aged 30 min
[11] = 78.6 μg/cm^2 (0.5%), treatment aged 60 min
[12] = 78.6 μg/cm^2 (0.5%), treatment aged 120 min
[13] = 78.6 μg/cm^2 (0.5%), treatment aged 180 min
[14] = concentration 0.1% (15.7 μg/cm^2)
[15] = concentration 0.5% (78.6 μg/cm^2)

SMILES	Percentage Repellency Over Time [1, 4] [%]	Percentage Repellency Over Time [1, 5] [%]	Percentage Repellency Over Time [1, 6] [%]	Percentage Repellency Over Time [1, 7] [%]	Percentage Repellency Over Time [1, 8] [%]	Percentage Repellency Over Time [1, 9] [%]	Percentage Repellency Over Time [1, 10] [%]	Percentage Repellency Over Time [1, 11] [%]	Percentage Repellency Over Time [1, 12] [%]	Percentage Repellency Over Time [1, 13] [%]	Percentage Repellency [2, 14] [%]	Percentage Repellency [2, 15] [%]	Percentage Repellency ([2]; concentration 1% (157 μg/cm^2)) [%]	long term repellency (in excess of two hours) [3]	Average Percentage Repellency Over Time ([3]; 60 min) [%]	Average Percentage Repellency Over Time ([3]; 120 min) [%]	Average Percentage Repellency Over Time ([3]; 360 min) [%]	Average Percentage Repellency Over Time ([3]; Initial) [%]	other results
CCN(CC)C(=O)c1cccc(C)c1 [DEET, N,N-diethyl-3-methylbenzamide, reference compound]	54.9	23.1	45.7	39	70.6	74.0	37	59	77.7	74	59.3	62.3	44.4	long term repellency	64	47	49	52	–
C=CC1(C)CCC(C(C)(C)O)CC1C(=C)C (stereo not shown) [Elemol]	35.0	30.8	49	20.7	44.8	84.7	76.5	96.5	80.8	76.5	63.0	81.3	74.1	long term repellency	52	43	35	56	% repellency ([3]; 78.6 μg/cm^2 (equivalent to a 0.5% solution), determined at 15 minutes, three replications): 38.9%; Avoidance Frequency ([3]; Conc 1% (157 μg/cm^2), average of mosquito contact repellency over 3-hour time period): 97; Repellency (%) (15-minute spatial repellency) ([3]; Conc 1% (157 μg/cm^2), determined at 15 minutes, six replications): 63.6%; spatial and contact repellency over a 6-hour time period ([3]; other data from our lab, 6-hour time period): good spatial and very good contact repellents
